Measurements as given in PubChem BioAssay AID1919014 (Molecular Pharmacology Branch, DTP, NCI, 2023).

System: NCI-H1341 complex spheroids, percent test/control
Experiment: Anticancer human tumor NCI-H1341 cell line growth inhibition [AhR];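 further: spheroids exposed to agents for seven days before readout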
Conditions: for IC50: curve of first compound; for viability, T/C: stronger effect = lower value
Procedure, shortened: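 Complex tumor spheroids co-cultured with HUVEC and human MSC stroma; AhR antagonists tested in combination with standard-of-care and investigational agents. Top concentration at or near clinical Cmax (else 10 microM), half-log dilutions; growth expressed as percent test/control.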

[1] = second compound 0.1 µM, first compound 0.0316 µM
[2] = second compound 0.1 µM, first compound 0.1 µM
[3] = second compound 0.1 µM, first compound 0.316 µM
[4] = second compound 0.1 µM, first compound 1 µM
[5] = second compound 0.1 µM, first compound 3.16 µM
[6] = second compound 0.1 µM, first compound 10 µM
[7] = second compound 0.316 µM, first compound 0.0316 µM
[8] = second compound 0.316 µM, first compound 0.1 µM
[9] = second compound 0.316 µM, first compound 0.316 µM
[10] = second compound 0.316 µM, first compound 1 µM
[11] = second compound 0.316 µM, first compound 3.16 µM
[12] = second compound 0.316 µM, first compound 10 µM
[13] = second compound 1 µM, first compound 0.0316 µM
[14] = second compound 1 µM, first compound 0.1 µM
[15] = second compound 1 µM, first compound 0.316 µM
[16] = second compound 1 µM, first compound 1 µM
[17] = second compound 1 µM, first compound 3.16 µM
[18] = second compound 1 µM, first compound 10 µM
[19] = second compound 3.16 µM, first compound 0.0316 µM
[20] = second compound 3.16 µM, first compound 0.1 µM
[21] = second compound 3.16 µM, first compound 0.316 µM
[22] = second compound 3.16 µM, first compound 1 µM
[23] = second compound 3.16 µM, first compound 3.16 µM
[24] = second compound 3.16 µM, first compound 10 µM
[25] = second compound 10 µM, first compound 0.0316 µM
[26] = second compound 10 µM, first compound 0.1 µM
[27] = second compound 10 µM, first compound 0.316 µM
[28] = second compound 10 µM, first compound 1 µM
[29] = second compound 10 µM, first compound 3.16 µM
[30] = second compound 10 µM, first compound 10 µM

For CC1(C)CCC(CN2CCN(c3ccc(C(=O)NS(=O)(=O)c4ccc(NCC5CCOCC5)c([N+](=O)[O-])c4)c(Oc4cnc5[nH]ccc5c4)c3)CC2)=C(c2ccc(Cl)cc2)C1 + Cc1ccccc1N=Nc1ccc(NC(=O)c2ccnn2C)c(C)c1, the IC50 (second compound 0.1 µM) was 1.97 µM, the IC50 (second compound 0.316 µM) was 2.26 µM and the IC50 (second compound 1 µM) was 1.99 µM. The IC50 (second compound 3.16 µM) was 0.539 µM, the IC50 (second compound 10 µM) was under 0.0316 µM and the viability, T/C [1] was 96.5%. For the same molecule, the viability, T/C [2] was 86%, the viability, T/C [3] was 96% and the viability, T/C [4] was 60.5%. It also gave a viability, T/C [5] of 41.3%, a viability, T/C [6] of 12.6% and a viability, T/C [7] of 100%. It also gave a viability, T/C [8] of 82.3%, a viability, T/C [9] of 94.2% and a viability, T/C [10] of 78.3%. It also gave a viability, T/C [11] of 38.1%, a viability, T/C [12] of 14.3% and a viability, T/C [13] of 80.3%. It also gave a viability, T/C [14] of 70.2%, a viability, T/C [15] of 84.2% and a viability, T/C [16] of 72.3%. It also gave a viability, T/C [17] of 34.6%, a viability, T/C [18] of 14.1% and a viability, T/C [19] of 80%. The viability, T/C [20] was 54.4%, the viability, T/C [21] was 61% and the viability, T/C [22] was 46.7%. It also gave a viability, T/C [23] of 30.1%, a viability, T/C [24] of 16.5% and a viability, T/C [25] of 44.2%. It also gave a viability, T/C [26] of 39.9%, a viability, T/C [27] of 44.5% and a viability, T/C [28] of 35.4%. For the same molecule, the viability, T/C [29] was 22% and the viability, T/C [30] was 12.8%.
With O=C(c1cc(Cc2n[nH]c(=O)c3ccccc23)ccc1F)N1CCN(C(=O)C2CC2)CC1 + Cc1cncc(-c2nc(NCCc3c[nH]c4ccccc34)c3ncn(C(C)C)c3n2)c1 the IC50 (second compound 0.1 µM) was over 10 µM, the IC50 (second compound 0.316 µM) was over 10 µM and the IC50 (second compound 1 µM) was over 10 µM. The IC50 (second compound 3.16 µM) was over 10 µM, the IC50 (second compound 10 µM) was under 0.0316 µM and the viability, T/C [1] was 87.6%. The viability, T/C [2] was 80.9%, the viability, T/C [3] was 82.1% and the viability, T/C [4] was 85.5%. It also gave a viability, T/C [5] of 76.7%, a viability, T/C [6] of 61.7% and a viability, T/C [7] of 72.7%. It also gave a viability, T/C [8] of 91.4%, a viability, T/C [9] of 64.4% and a viability, T/C [10] of 77.5%. For the same molecule, the viability, T/C [11] was 74.1%, the viability, T/C [12] was 63% and the viability, T/C [13] was 88.3%. The viability, T/C [14] was 61.2%, the viability, T/C [15] was 70.8% and the viability, T/C [16] was 79.3%. It also gave a viability, T/C [17] of 71%, a viability, T/C [18] of 62.7% and a viability, T/C [19] of 57.5%. The viability, T/C [20] was 61.1%, the viability, T/C [21] was 60.6% and the viability, T/C [22] was 62%. The viability, T/C [23] was 68.1%, the viability, T/C [24] was 51.4% and the viability, T/C [25] was 19.4%. The viability, T/C [26] was 19.5%, the viability, T/C [27] was 19.6% and the viability, T/C [28] was 21.3%. The viability, T/C [29] was 21.2% and the viability, T/C [30] was 22.1%.
COc1ccc([C@@H](O)c2cc(-c3ncnc4cc(N5CCOCC5)ccc34)c(F)cc2Cl)nn1 + Cc1ccccc1N=Nc1ccc(NC(=O)c2ccnn2C)c(C)c1 was tested, and the IC50 (second compound 0.1 µM) was 0.903 µM, the IC50 (second compound 0.316 µM) was 0.791 µM and the IC50 (second compound 1 µM) was 0.631 µM. For the same molecule, the IC50 (second compound 3.16 µM) was 0.461 µM, the IC50 (second compound 10 µM) was under 0.0316 µM and the viability, T/C [1] was 98.3%. For the same molecule, the viability, T/C [2] was 91.6%, the viability, T/C [3] was 70.8% and the viability, T/C [4] was 51.5%. It also gave a viability, T/C [5] of 19.3%, a viability, T/C [6] of 8.09% and a viability, T/C [7] of 87.2%. For the same molecule, the viability, T/C [8] was 68.9%, the viability, T/C [9] was 70.6% and the viability, T/C [10] was 46.4%. The viability, T/C [11] was 19.9%, the viability, T/C [12] was 8.42% and the viability, T/C [13] was 75.3%. It also gave a viability, T/C [14] of 67.9%, a viability, T/C [15] of 62.8% and a viability, T/C [16] of 42%. The viability, T/C [17] was 21.6%, the viability, T/C [18] was 8.86% and the viability, T/C [19] was 73%. It also gave a viability, T/C [20] of 59.9%, a viability, T/C [21] of 58.7% and a viability, T/C [22] of 38.5%. The viability, T/C [23] was 18%, the viability, T/C [24] was 5.82% and the viability, T/C [25] was 47.2%. For the same molecule, the viability, T/C [26] was 51.8%, the viability, T/C [27] was 39.3% and the viability, T/C [28] was 29.2%. For the same molecule, the viability, T/C [29] was 14.3% and the viability, T/C [30] was 7.84%.
Molecule CCN(c1cc(-c2ccc(CN3CCOCC3)cc2)cc(C(=O)NCc2c(C)cc(C)[nH]c2=O)c1C)C1CCOCC1 + Cc1ccccc1N=Nc1ccc(NC(=O)c2ccnn2C)c(C)c1 has an IC50 (second compound 0.1 µM) of over 3 µM, an IC50 (second compound 0.316 µM) of over 3 µM and an IC50 (second compound 1 µM) of over 3 µM. It also gave an IC50 (second compound 3.16 µM) of over 3 µM, an IC50 (second compound 10 µM) of over 3 µM and a viability, T/C (second compound 0.1 µM, first compound 0.00949 µM) of 95.8%. For the same molecule, the viability, T/C (second compound 0.1 µM, first compound 0.03 µM) was 85.1%, the viability, T/C (second compound 0.1 µM, first compound 0.0949 µM) was 75.5% and the viability, T/C (second compound 0.1 µM, first compound 0.3 µM) was 104%. It also gave a viability, T/C (second compound 0.1 µM, first compound 0.949 µM) of 90.9%, a viability, T/C (second compound 0.1 µM, first compound 3 µM) of 107% and a viability, T/C (second compound 0.316 µM, first compound 0.00949 µM) of 90.2%. It also gave a viability, T/C (second compound 0.316 µM, first compound 0.03 µM) of 103%, a viability, T/C (second compound 0.316 µM, first compound 0.0949 µM) of 89.6% and a viability, T/C (second compound 0.316 µM, first compound 0.3 µM) of 87.1%. The viability, T/C (second compound 0.316 µM, first compound 0.949 µM) was 104%, the viability, T/C (second compound 0.316 µM, first compound 3 µM) was 73.1% and the viability, T/C (second compound 1 µM, first compound 0.00949 µM) was 91.6%. For the same molecule, the viability, T/C (second compound 1 µM, first compound 0.03 µM) was 102%, the viability, T/C (second compound 1 µM, first compound 0.0949 µM) was 94.7% and the viability, T/C (second compound 1 µM, first compound 0.3 µM) was 90.6%. It also gave a viability, T/C (second compound 1 µM, first compound 0.949 µM) of 79.8%, a viability, T/C (second compound 1 µM, first compound 3 µM) of 100% and a viability, T/C (second compound 3.16 µM, first compound 0.00949 µM) of 75.2%. For the same molecule, the viability, T/C (second compound 3.16 µM, first compound 0.03 µM) was 75.1%, the viability, T/C (second compound 3.16 µM, first compound 0.0949 µM) was 70.6% and the viability, T/C (second compound 3.16 µM, first compound 0.3 µM) was 71%. For the same molecule, the viability, T/C (second compound 3.16 µM, first compound 0.949 µM) was 73.3%, the viability, T/C (second compound 3.16 µM, first compound 3 µM) was 60.6% and the viability, T/C (second compound 10 µM, first compound 0.00949 µM) was 54.9%. It also gave a viability, T/C (second compound 10 µM, first compound 0.03 µM) of 45.6%, a viability, T/C (second compound 10 µM, first compound 0.0949 µM) of 54.6% and a viability, T/C (second compound 10 µM, first compound 0.3 µM) of 52.2%. It also gave a viability, T/C (second compound 10 µM, first compound 0.949 µM) of 49.8% and a viability, T/C (second compound 10 µM, first compound 3 µM) of 66.5%.
COc1cc(C2c3cc4c(cc3C(OC3OC5COC(C)OC5C(O)C3O)C3COC(=O)C23)OCO4)cc(OC)c1O (stereo not given) + CC(CO)NC(=O)c1cc(-c2ccc(Cl)cc2)nn(-c2cnn(C)c2)c1=O was tested, and the IC50 (second compound 0.1 µM) was 1.19 µM, the IC50 (second compound 0.316 µM) was 0.673 µM and the IC50 (second compound 1 µM) was 0.471 µM. The IC50 (second compound 3.16 µM) was 0.294 µM, the IC50 (second compound 10 µM) was 0.135 µM and the viability, T/C [1] was 85.9%. It also gave a viability, T/C [2] of 84.6%, a viability, T/C [3] of 65.2% and a viability, T/C [4] of 50.4%. It also gave a viability, T/C [5] of 44.8%, a viability, T/C [6] of 33.3% and a viability, T/C [7] of 72.4%. It also gave a viability, T/C [8] of 69.1%, a viability, T/C [9] of 55.5% and a viability, T/C [10] of 44.8%. It also gave a viability, T/C [11] of 39.4%, a viability, T/C [12] of 28.7% and a viability, T/C [13] of 74.2%. For the same molecule, the viability, T/C [14] was 76.5%, the viability, T/C [15] was 54.4% and the viability, T/C [16] was 44.3%. It also gave a viability, T/C [17] of 41.3%, a viability, T/C [18] of 36.1% and a viability, T/C [19] of 74.6%. For the same molecule, the viability, T/C [20] was 75.6%, the viability, T/C [21] was 48.2% and the viability, T/C [22] was 40.2%. It also gave a viability, T/C [23] of 41.1%, a viability, T/C [24] of 28.6% and a viability, T/C [25] of 63.5%. The viability, T/C [26] was 56.8%, the viability, T/C [27] was 40.6% and the viability, T/C [28] was 33.4%. The viability, T/C [29] was 33.2% and the viability, T/C [30] was 27.3%.
